Results from US10493048B2 (Neurocentria, Inc., priority 2015, dated 2019).

Legend:
hippocampal neurons [1] = assay: Functional terminal density by FM1-43 imaging
Description: (§3) Neurons were plated onto Matrigel® (BD)-coated 8×8 mm coverslips or 6-well cell plates (Corning).
Background FM, determined by imaging after unloading of FM dye following 480 APs at 2 Hz, was subtracted from the physiological action potential image. Terminals containing detectable amount of FM after subtraction were considered to be functional.
FM 1-43+ puncta number per μm^2 of dendrite was used to estimate functional presynaptic terminal density.

[2] = tested on: cultured rat hippocampal neurons; assay: Intracellular free Mg2+ analysis (Magnesium Green) in hippocampal neuron cultures
Description: as §3
[Mg^2+]i was determined by using Magnesium Green™ (MgGreen, Invitrogen).
Where F(a.u.) is the mean fluorescent density (arbitrary units) in the branch of interest which was quantified by using Image-Pro Plus software (IPP, Media Cybernetics, Carlsbad, Calif.), and Ddiameter is the mean width of the same selected branch in DIC image.

hippocampal neurons [3] = settings: threonate 0-150 μM, 2 days
Description: (§1) For chemical structure see supplemental FIG. 1.
Neuronal cultures were washed three times in 0.01 M PBS followed by fixation for 20 min in 4% paraformaldehyde at 4° C. The neuronal culture coverslips were then washed in PBS before incubation in blocking solution containing 0.1% Triton X-100 and 1% bovine serum albumin for 30 min at room temperature. […] Finally, neurons were mounted onto slides with anti-fade fluorescent mounting medium (Vector Laboratories) and stored at 4° C. for 2 days.
Cultures were imaged with a confocal laser inverted microscope (Olympus IX-70) equipped with a 60× (NA 1.2) objective. […] The density of synaptophysin (Syn) and PSD-95 was estimated from images by analyzing with IPP. The puncta of Syn and PSD-95, localized at the dendrites labeled by the neuronal marker MAP2, were counted manually. To determine the density of Syn and PSD-95 colocalization, we aligned two sets of images and resulting yellow clusters (Syn: red; PSD-95: green) localized at dendritic were quantified. Fluorescence spots (red and green) having a diameter between 0.1 and 0.6 μm were classified.

hippocampal neurons [4] = settings: threonate 0-150 μM, 2 days; remark: listed apart in the source
Description: as §1
(§2) Proteins were transferred to PVDF membranes (Millipore), probed with primary antibodies against Synaptophysin (Millipore), RIM1 and Rab3a (Synaptic System), PSD-95, NR2B, β-tubulin and/or β-actin (all from Cell Signaling Technology) and then followed by an appropriate HRP-coupled secondary antibody (Cell Signaling Technology). The signals were detected by ECL detection reagent (GE Healthcare) and captured on autoradiography film (Kodak). For quantification of protein signals, the integrated optical density (IOD) was measured with IPP, and β-tubulin or β-actin on the same lane served as loading controls.

hippocampal neurons [5] = settings: threonate (150 M) for 2 days, 0.6 Mg, p<0.01
Description: Mitochondrial transmembrane potential (Δψm) of hippocampal neurons was observed microscopically (Olympus IX-70) by using 5,5′,6,6′-tetrachloro-1,1′,3,3′-tetraethylbenzimidazolylcarbocyanine iodide (JC-1, Invitrogen). The monomeric form of JC-1 has an emission maximum at 529 nm. At higher concentrations or potentials the dye forms red fluorescent J-aggregates with an emission maximum of 590 nm. The ratio of J-aggregate/J-monomer is used as an estimate of Δψm.

hNSC-derived neurons = tested on: hNSC-derived neurons
Description: Human fetal cortices-derived neural stem cells (hNSC; Angecon, China) were cultured in hNSC medium (Angecon) according to guidelines provided by Angecon. hNSCs were maintained in this medium for 10-14 days, passaged using Accutase (Invitrogen), washed and replated at a dilution of 1:3 to 1:5.
A previously described differentiation protocol was used to differentiate hNSCs to neurons. Briefly, hNSC cultures were dissociated into single cells with Accutase, and then plated on polyornithine/laminin (Sigma)-coated 6-well plates at 50,000 cells per cm^2 in neural maintenance medium with EGF (Invitrogen) and FGF2 (Pepro Tech) at a concentration of 10 ng ml^−1. Neural maintenance medium consists of a 1:1 mixture of DMEM/F12 and Neurobasal medium (Invitrogen), 1×N2 (Invitrogen), 1×B27 (Invitrogen), 1 mM L-glutamine, 0.1 mM non-essential amino acids, 5 μg ml^−1 insulin, 0.1 mM 2-mercaptoethanol, 25 U ml^−1 penicillin and […] streptomycin. […] Neurons were maintained 10-14 days in this medium; medium was replaced every day. When neuroepithelial cells appeared, Dispase (Roche) was used to collect cells. They were replated in neural maintenance medium with EGF and FGF2 at 20 ng ml^−1 for 2-4 days, then changed to neural maintenance medium and cultured for up to 80 days, replacing medium every other day.
as §2

[6] = human neurons treated at day 90, dose-dependent, up to 400 μM
[7] = threonate 150 μM, time course 0-36 hr

## NCC(=O)O [glycinate, reference compound]
Hippocampal neurons [1]
  effect on functional terminal density, comparison of anions: no significant effects
[2]
  ability to increase intracellular [Mg2+], comparison of anions: threonate was the only one able to increase

## C=C1[C@@H](C)[C@H]2[C@H](Cc3ccccc3)NC(=O)[C@]23OC(=O)/C=C/[C@H](O)CCC[C@@H](C)C/C=C/[C@H]3[C@@H]1O [CB, cytochalasin B, reference compound]
Hippocampal neurons [1]; 4 hr, without threonate
  density of functional terminals relative to control, inhibitor alone: did not affect
[2]; 4 hr, without threonate
  intracellular [Mg2+] relative to control, inhibitor alone: did not alter

## O=C(CCc1ccc(O)cc1)c1c(O)cc(O)cc1O [phloretin, reference compound]
Hippocampal neurons [1]; 4 hr, without threonate, p<0.05
  decrease of functional terminal density, inhibitor alone: 10.5%
[2]; 4 hr, without threonate, p<0.01
  decrease of intracellular [Mg2+] relative to placebo, inhibitor alone: 10.4%

## O=C(O)[C@H](O)[C@@H](O)CO [threonate, (2R,3S)-2,3,4-trihydroxybutanoate]
Hippocampal neurons [3]
  colocalization of Syn/PSD-95: significantly upregulated
  density of PSD-95 puncta: significantly upregulated
  density of Syn puncta: significantly upregulated
Hippocampal neurons [4]
  NR2B-containing NMDAR expression (Western blot): significantly upregulated
  PSD-95 expression (Western blot): significantly increased
  RIM1 expression (Western blot): significantly increased
  Rab3a expression (Western blot): significantly increased
  Syn expression (Western blot): significantly increased
Hippocampal neurons [5]
  increase of mitochondrial membrane potential ΔΨm (JC-1 aggregate/monomer ratio): 49.6%
hNSC-derived neurons; effects continued to increase even at 400 μM
  threonate dose response curve in human neurons compared to the rat dose response curve: shifted toward a higher concentration
hNSC-derived neurons; [6]
  PSD-95 expression (Western blot): significantly increased
  Syn expression (Western blot): significantly increased
Hippocampal neurons [1]; threonate 150 μM, 4 hr, with cytochalasin B
  effect on functional terminal density in the presence of CB: unable to elevate
Hippocampal neurons [1]; threonate 150 μM, 4 hr, with phloretin, p<0.001
  increase of functional terminal density relative to control in the presence of phloretin: 20.4%
Hippocampal neurons [1]; threonate 50-150 μM, 2 days, extracellular [Mg2+] 0.6, 0.8 or 1.2 mM
  number of functional terminals, dose dependence: increased in threonate-treated neurons in a dose-dependent manner
Hippocampal neurons [1]; threonate 4 hr, 0.1 mM extracellular [Mg2+]
  effect on functional terminal density at reduced extracellular [Mg2+]: prevented threonate from increasing functional terminal density
Hippocampal neurons [1]; threonate (150 M) for 4 hr, 0.6 mM extracellular [Mg2+] (Example 5)
  increase of functional terminal density: 23%
[2]; 4 hr, with cytochalasin B (GLUTs inhibitor)
  threonate-mediated increase of intracellular [Mg2+] in the presence of CB: prevented
[2]; 4 hr, with phloretin (SVCT2 inhibitor), p<0.0001
  increase of intracellular [Mg2+] in the presence of phloretin: 23.5%
[2]; 2 day treatment, 0-200 μM tested
  threonate concentration that induced the largest change in intracellular [Mg2+]: 150 µM
[2]; 2 day treatment, threonate 0-200 μM, extracellular [Mg2+] 0.6, 0.8 or 1.2 mM
  effect on intracellular [Mg2+]: increase of intracellular [Mg^2+] in a dosage-dependent manner
[2]; threonate 150 μM, 4 hr, 0.1 mM extracellular [Mg2+]
  effect on intracellular [Mg2+] at reduced extracellular [Mg2+]: no longer induced elevation
[2]; threonate 150 μM, 4 hr, 0.6 mM extracellular [Mg2+] (Example 3)
  increase of intracellular [Mg2+]: ~27%
[2]; [7]
  persistence of the intracellular [Mg2+] increase: persisted for the entire course of the experiment
  time at which effect on intracellular [Mg2+] was maximal: 2 h
[2]; threonate (150 mM), 4 hr, 0.6 mM [Mg2+]o (Example 7), p<0.0001
  increase of intracellular [Mg2+]: 29.6%
